Data from patent EP2119770B1, “Production of alpha-oxyfunctionalized carbonyl compounds” (priority 2008, dated 2009).

Legend:
Assay type in all cases: biochemical
Gox1615 [1] = molecular target: T1, Gox1615 (Gluconobacter oxydans, UniProt Q5FQJ0); assay: Enzyme activity assay (rate of NAD(P)H decrease at 340 nm), Gox1615; settings: 10 mM substrate; for Specific Activity: Tab. 5, Gox1615, cofactor NADPH, pH 7.0, 30 °C; for Activity: Table 3, Gox1615, K-phosphate buffer pH 7.0, 0.05 mM NAD(P)H, 30 °C
T1 sequence (Q5FQJ0 1-332): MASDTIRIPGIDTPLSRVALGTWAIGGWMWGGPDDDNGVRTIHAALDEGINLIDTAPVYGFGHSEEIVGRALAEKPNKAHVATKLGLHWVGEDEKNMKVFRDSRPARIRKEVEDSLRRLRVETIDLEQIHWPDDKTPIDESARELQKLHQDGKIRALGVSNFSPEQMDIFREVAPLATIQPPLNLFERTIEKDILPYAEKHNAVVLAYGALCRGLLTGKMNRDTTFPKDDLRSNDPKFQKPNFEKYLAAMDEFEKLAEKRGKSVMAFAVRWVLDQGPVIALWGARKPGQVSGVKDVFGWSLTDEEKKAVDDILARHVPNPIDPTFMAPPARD
Summary of the method: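 Purified enzymes assayed at 30 °C in 40 mM potassium phosphate pH 7.0 with 10 mM substrate and NAD(P)H (0.025 mM, or 0.05 mM in the standard mixture), started by adding enzyme or substrate. Activity followed as the rate of NAD(P)H decrease at 340 nm; one unit = 1 µmol pyridine nucleotide converted per min; protein measured by Bradford.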

Gox1615 [2] = molecular target: T1, Gox1615; assay: Enzyme kinetics (Lineweaver-Burk plots), Gox1615; settings: NADPH-dependent reduction
Method: Determination of pH and temperature optima and enzyme kinetics: The optimum pH for enzyme activities was determined by a modified method of Salusjärvi, T. et al., Appl. Microbiol. Biotechnol. 65:306-314 (2004) using the following buffer system (50 mM final concentration each): sodium acetate pH 4.5 - 6.5, potassium phosphate pH 6.5 - 8.0, Tris-HCl pH 8.0 - 10. Temperature optima for the biocatalysts were determined under standard reaction conditions at temperatures ranging from 20 - 80 °C. The Michaelis constant (Km) for the proteins was determined from purified enzyme by Lineweaver-Burk plots. Assays were performed at optimum pH for each enzyme and at 30 °C using the top substrate and a targeted substrate. The Km for each substrate was calculated using concentrations of 0.0025 to 10 mM, and the Km NAD(P)H and NAD(P) was calculated using concentrations of 0.01 to 0.5 mM
The Michaelis constants were determined from purified enzyme by Lineweaver-Burk plots. The Km and Vmax values for the substrates were calculated using concentrations of 0.025 to 10 mM, The optimal pH values and temperatures for enzyme activities are also shown in Tab. 11. Tab. 11: Summary of kinetic parameters

Gox1615 [3] = molecular target: T1, Gox1615; assay: Regioselectivity of bioconversion, product determined by NMR, Gox1615; settings: bioconversion with Gox1122 cofactor regeneration, NMR analysis
Source text: Cofactor regeneration: A prerequisite for the production of α-hydroxycarbonyl compounds is the regeneration of the expensive coenzymes and the stability of the protein catalysts. By coupling two coenzyme-dependent enzyme reactions, NADPH can be continuously regenerated. […] For this purpose, we used a combined enzymatic reaction between the NADPH-dependent oxidoreductases that form α-hydroxycarbonyl compounds and the aldehyde dehydrogenase GOX1122 (see Schweiger, P. et al., J. Mol. Microbiol. Biotechnol. 13:147-155 (2007)) that produces the reduced cofactor in the course of acetaldehyde oxidation. […] The biotransformation was performed in a batch process (total volume 2.5 ml 40 mM potassium phosphate buffer pH 7). 30 µg of purified Gox1122 and of NADPH-dependent oxidoreductases and 50 µM NADPH were added. The substrate concentration in the beginning was 20 mM 2,3-pentanedione and 20 mM acetaldehyde. Fresh substrates were added every 60 min (20 mM each).
NMR: The 2.5 ml bioconversion was extracted with two times equal volume of d-chloroform. ^1H and ^13C NMR spectra were recorded on a DPX 300 Spectrometer (300 MHz) and referenced to the CDCl3 internal standard. Chemical samples analyzed with Bruker NMR Suite 2.5 software constructed final product structures.
2.7 Regioselectivity of GOX0644 and GOX1615: Tab. […] Tab. 10: Summary of Regioselectivity
The reduced NADPH was oxidized in the reduction of phenylglyoxal to 2-hydroxy-2-phenyl-acetaldehyde by protein Gox1615. 5 ml bioconversions for determining regioselectivity were set up with 2 mg of proteins Gox1615 and Gox1122, 40 mM potassium phosphate buffer, pH 7.0, 50 µM NADPH. Substrates (20 mM phenylglyoxal and acetaldehyde) were added every 30 min. The reaction was followed for 3 h to produce quantities between 40-60 mg of product (2-phenyl-2-hydroxyaldehyde).

Product (regioselective reduction) (Gox1615 [3]; listed as Phenylglyoxal) | Structure (SMILES) | Specific Activity (Gox1615 [1]) | Activity (Gox1615 [1]) | Vmax (Gox1615 [2]) | Product (regioselective reduction) (Gox1615 [3])
 | CCC(=O)C(=O)CC [3,4-hexanedione] | 2 U/mg | 2.0 U/mg |  | 
 | CCCC(=O)C(C)=O [2,3-hexanedione] | 6.5 U/mg | 6.5 U/mg | 6 U/mg protein | 
 | CCC(=O)C(C)=O [2,3-pentanedione] | 6.2 U/mg | 6.2 U/mg |  | 2-hdrox-pentane-3-one
2-hydroxy-2-phenylacetaldehyde | O=CC(=O)c1ccccc1 [phenylglyoxal] | 19.1 U/mg | 19.1 U/mg |  | 2-hydroxy-2-phenyl-acetaldehyde
 | CC(=O)C=O [methylglyoxal] | 19.3 U/mg | 19.3 U/mg | 22 U/mg protein | 
